Test [1] deals with T1, human Cathepsin K (Homo sapiens, UniProt P43235).
T1 sequence (P43235 115-329): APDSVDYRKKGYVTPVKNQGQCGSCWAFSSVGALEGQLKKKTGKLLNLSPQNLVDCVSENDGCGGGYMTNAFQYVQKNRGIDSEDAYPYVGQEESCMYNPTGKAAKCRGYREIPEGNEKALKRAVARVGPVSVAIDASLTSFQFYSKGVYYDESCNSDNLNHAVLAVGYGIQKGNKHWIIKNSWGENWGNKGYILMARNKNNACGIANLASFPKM
Put plainly: Cathepsin K inhibition, fluorogenic peptide substrate, progress curve method. The following applies: human recombinant enzyme, pH 5.5. The class given is biochemical. Here is the method: Determination of Cathepsin K Proteolytic Catalytic Activity
All assays for cathepsin K were carried out with human recombinant enzyme. Standard assay conditions for the determination of kinetic constants used a fluorogenic peptide substrate, typically Cbz-Phe-Arg-AMC, and were determined in […] Na acetate at pH 5.5 containing 20 mM cysteine and 5 mM EDTA. Stock substrate solutions were prepared at concentrations of 10 or 20 mM in DMSO with 20 uM final substrate concentration in the assays. All assays contained 10% DMSO. […] All assays were conducted at ambient temperature. Product fluorescence (excitation at 360 nm; emission at 460 nm) was monitored with a Perceptive Biosystems Cytofluor II fluorescent plate reader. Product progress curves were generated over 20 to 30 minutes following formation of AMC product.
Potential inhibitors were evaluated using the progress curve method. Assays were carried out in the presence of variable concentrations of test compound. Reactions were initiated by addition of enzyme to buffered solutions of inhibitor and substrate. Data analysis was conducted according to one of two procedures depending on the appearance of the progress curves in the presence of inhibitors. For those-compounds whose progress curves were linear, apparent inhibition constants (Ki,app) were calculated according to equation 1 (Brandt et al., Biochemitsry, 1989, 28, 140): […]
v=VmA/[Ka(1+[…])+A] (1) where v is the velocity of the reaction with maximal velocity Vm, A is the concentration of substrate with Michaelis constant of Ka, and I is the concentration of inhibitor.
[AMC]=vsst+(v0−vss)[1−exp(−kobst)]]/kobs (2) where [AMC] is the concentration of product formed over time t, v0 is the initial reaction velocity and vss is the final steady state rate. Values for kobs were then analyzed as a linear function of inhibitor concentration to generate an apparent second order rate constant (kobs/inhibitor concentration or kobs/[I]) describing the time-dependent inhibition. A complete discussion of this kinetic treatment has been fully described (Morrison et al., Adv. Enzymol. Relat. Areas Mol. Biol., 1988, 61, 201).

The target of test [2] is human Cathepsin B (Homo sapiens, UniProt P07858). Put plainly: Cathepsin B inhibition, progress curve method. The class given is biochemical. How it is done: (§1) Potential inhibitors were evaluated using the progress curve method. Assays were carried out in the presence of variable concentrations of test compound. Reactions were initiated by addition of enzyme to buffered solutions of inhibitor and substrate. Data analysis was conducted according to one of two procedures depending on the appearance of the progress curves in the presence of inhibitors. For those-compounds whose progress curves were linear, apparent inhibition constants (Ki,app) were calculated according to equation 1 (Brandt et al., Biochemitsry, 1989, 28, 140):
(§2) v=VmA/[Ka(1+1/Ki, app)+A] (1)
(§3) where v is the velocity of the reaction with maximal velocity Vm, A is the concentration of substrate with Michaelis constant of Ka, and I is the concentration of inhibitor.

Test [3] has as its target human Cathepsin S (Homo sapiens, UniProt P25774). As to the kind of experiment: Cathepsin S inhibition, progress curve method. The class given is biochemical. Here is the method:
as §1, §2, §3

The target in test [4] is human Cathepsin L (Homo sapiens, UniProt P07711). As to the kind of experiment: Cathepsin L inhibition, progress curve method. The class given is biochemical. How it is done:
as §1, §2, §3

For test [5], the system named is bone resorption. Particulars: mouse bone organ culture; cited from earlier work.
For test [6], the system named is bone resorption. Particulars: rats on calcium deficient diets, serum calcium; cited from earlier work.
For test [7], the system named is PTH stimulated bone resorption. Particulars: mouse calvariae; cited from earlier work.

As usually defined, the Ki is the dissociation constant of the complex between target and ligand, obtained from inhibition or displacement.

Sequence of human Cathepsin S (P25774 115-331): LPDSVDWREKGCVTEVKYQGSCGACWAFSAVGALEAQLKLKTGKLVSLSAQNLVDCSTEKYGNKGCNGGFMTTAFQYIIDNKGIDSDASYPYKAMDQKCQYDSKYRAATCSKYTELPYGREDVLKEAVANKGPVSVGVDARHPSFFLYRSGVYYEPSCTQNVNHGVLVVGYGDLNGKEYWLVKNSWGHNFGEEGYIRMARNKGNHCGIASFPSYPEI
Sequence of human Cathepsin L (P07711 114-333): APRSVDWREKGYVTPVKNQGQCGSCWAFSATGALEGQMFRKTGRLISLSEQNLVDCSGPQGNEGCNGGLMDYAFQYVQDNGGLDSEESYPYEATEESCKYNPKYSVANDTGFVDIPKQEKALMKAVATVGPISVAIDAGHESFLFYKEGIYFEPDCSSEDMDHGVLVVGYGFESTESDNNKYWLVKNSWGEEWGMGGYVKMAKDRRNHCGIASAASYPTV

`O=C(NC1(C(=O)N[C@H]2CCCN(S(=O)(=O)c3ccccn3)CC2=O)CCCCC1)c1cc2sccc2s1` (racemic) [Example 2, Thieno[3,2-b]thiophene-2-carboxylic Acid {1-[(+/−)-3-oxo-1-(pyridine-2-sulfonyl)-azepan-4-ylcarbamorl]-cyclohexyl}-amide]: the inhibition constant Ki in test [1] is 0.58 nM; in test [2], 434 nM; in test [3], 632 nM; in test [4], 270 nM.

As for `CC(=O)N[C@@H](CC(C)C)C(=O)N[C@@H](CC(C)C)C(=O)N[C@H](C=O)CCCNC(=N)N` [leupeptin], the “prevention of bone resorption” value in test [5] is “prevent bone resorption”. Further, in test [6], the “prevention of bone resorption in vivo” value was “effective at preventing bone resorption in vivo”.

As to `C[C@@H]1CC[C@H](NC(=O)C2(NC(=O)c3cc4sccc4s3)CCCCC2)C(=O)CN1S(=O)(=O)c1ccccn1` [Example 5, Thieno[3,2-b]thiophene-2-carboxylic Acid {1-[(4S,7R)-7-methyl-3-oxo-1-(pyridine-2-sulfonyl)-azepan-4-ylcarbamoyl]-cyclohexyl}-amide], the Ki in test [1] was determined as 0.3 nM; in test [2] it was 173 nM; in test [3] it was 175 nM; in test [4], 69 nM.

For the molecule `O=C(NC1(C(=O)N[C@H]2CCCN(S(=O)(=O)c3ccccn3)CC2=O)CCCCC1)c1cc2ccccc2o1` [Example 1, Benzofaran-2-carboxylic Acid {1-[(S)-3-oxo-1-(pyridine-2-sulfonel)-azepan-4-ylcarbamoyl]-cyclohexyl}-amide], the Ki in test [1] was 1.4 nM; in test [2], 926 nM; in test [3] it was 390 nM; in test [4] it was 239 nM.

Turning to `O=C(NC1(C(=O)N[C@@H]2CCCN(S(=O)(=O)c3ccccn3)CC2=O)CCCCC1)c1cc2ccccc2o1` [Example 1 (R), Benzofuran-2-carboxylic acid {1-[(R)-3-oxo-1-(pyridine-2-sulfonyl)-azepan-4-ylcarbamoyl]-cyclohexyl}-amide], in test [1], the Ki was above 26 nM.

Take cystatin: the “inhibition of PTH stimulated bone resorption” value in test [7] was “inhibits PTH stimulated bone resorption”.

`C[C@H](NC(=O)[C@H](Cc1ccccc1)NC(=O)OCc1ccccc1)C(=O)C=[N+]=[N-]` [Z-Phe-Ala-CHN2]: in test [5], the “prevention of bone resorption” value is given as “prevent bone resorption”.

`CC(C)C[C@H](NC(=O)[C@H]1O[C@@H]1C(=O)O)C(=O)NCCCCN=C(N)N` [Example E-64, E-64]: in test [6], the “prevention of bone resorption in vivo” value is recorded as “effective at preventing bone resorption in vivo”.
